The target in one assay is FynSH3 (Homo sapiens (Human), UniProt P06241). Nature of the assay: Isothermal titration calorimetry, FynSH3. The format is binding. An excerpt: Human Fyn-SH3 domain with GST-tag at the N-terminus and a Strep-tag II ([…]) at the C-terminus (GST-Fyn-SH3-Strep) was cloned into pPR-IBA1 vector (IBA Lifesciences) (Cochran, et al. (2014) J. Biomol. Screen. 19, 1338-1349). Codon-optimized human 4R2N Tau for E. coli expression with a Strep-tag II at the C-terminus (His-Tau-Strep) was cloned into pET-28a(+) vector (Novagen). The constructs were transformed into E. coli BL-21(DE3) competent cells (Novagen). For GST-Fyn-SH3-Strep purification, a single colony was inoculated in Luria-Bertani (LB) broth at 37° C. overnight. 10 mL cell culture was added into 500 mL LB medium and cultured at 37° C. 0.5 mM Isopropyl β-D-1-thiogalactopyranoside (IPTG) was added into the culture when OD600 reached 0.7. Cells were further cultured at 25° C. for 4 hours and harvested. Cell pellet was resuspended in lysis buffer (20 mM Tris pH 7.9, 300 mM NaCl, 1 mM TCEP) with 1 tablet of EDTA-free protease inhibitors (ThermoFisher) and 1 mg/ml lysozyme. Cells were disrupted by sonication and debris was removed by centrifugation at 9500 rpm for 1 hour. […]
FynSH3, sequence (P06241 82-143): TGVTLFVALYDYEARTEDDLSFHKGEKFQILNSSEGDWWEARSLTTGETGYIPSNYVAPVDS
Purified full-length Tau and FynSH3 were dialyzed into 20 mM Tris and 150 mM NaCl, pH 8.0 with Slide-A-Lyzer G2 Dialysis Cassettes with 10K MWCO (ThermoFisher #87729). […] Protein concentrations were measured on a Nanodrop2000 (ThermoFisher) based on absorbance at 280 nm. […]

In a further assay the target is Tau-FynSH3 interaction (Homo sapiens (Human), UniProt P10636). Nature of the assay: Tau-Flag PLA, Tau-FynSH3. It is filed as cell-based. The method, then:
(§1) Tau-Flag PLA for Tau-SH3 interactions: To clone the SH3 constructs, a C-terminal Flag tag was added to the Tau construct using PCR, then the Tau sequence was replaced with the desired SH3 domain using In-Fusion HD cloning kit (Takara Bio). Next, an N-terminal GST tag was added to help expression using In-Fusion, resulting in GST-SH3-Flag plasmids. As a negative control, restriction enzymes were used to remove the FynSH3 from the FynSH3 construct, resulting in GST-Flag. All sequences were confirmed with Sanger sequencing, and expression in HEK-293 cells was verified by western blot and immunocytochemistry. Plating and experimental timeline was the same as above. Cells were transfected with 125 ng of Tau-mKate2 and 500 ng SH3 plasmid with 1.5 μL Fugene. compound no. 69 was applied to final concentration 15 μM. For Tau-SH3 PLA, we used Dako Tau (1:1000) and Flag (1:1000) primary antibodies.

Assay [1] relates to endogenous Tau-tubulin interaction. Nature of the assay: Tau-Tubulin PLA in HEK-293 cells. The format is cell-based, human. As to conditions: 15 μM, 24 hours, untransfected HEK-293 cells. The method, then: Tau-Tubulin PLA: Untransfected HEK-293 cells were used to measure endogenous Tau-tubulin interaction. Cells were grown for 48 hours before applying 15 µM compound no. 69 for 24 hours. Cells were fixed and PLA was run as above except with Dako Tau (1:1000) and α-tubulin (1:2000) primary antibodies.

In another assay the target is Tau-LckSH3 interaction (Homo sapiens (Human), UniProt P10636). Kind of assay: Tau-Flag PLA, Tau-LckSH3. The format is cell-based. As to conditions: 15 μM, HEK-293 cells. As for the experimental part: as §1
Tau-LckSH3 interaction, sequence (P10636 other isoform, or with tags, fused parts or gaps): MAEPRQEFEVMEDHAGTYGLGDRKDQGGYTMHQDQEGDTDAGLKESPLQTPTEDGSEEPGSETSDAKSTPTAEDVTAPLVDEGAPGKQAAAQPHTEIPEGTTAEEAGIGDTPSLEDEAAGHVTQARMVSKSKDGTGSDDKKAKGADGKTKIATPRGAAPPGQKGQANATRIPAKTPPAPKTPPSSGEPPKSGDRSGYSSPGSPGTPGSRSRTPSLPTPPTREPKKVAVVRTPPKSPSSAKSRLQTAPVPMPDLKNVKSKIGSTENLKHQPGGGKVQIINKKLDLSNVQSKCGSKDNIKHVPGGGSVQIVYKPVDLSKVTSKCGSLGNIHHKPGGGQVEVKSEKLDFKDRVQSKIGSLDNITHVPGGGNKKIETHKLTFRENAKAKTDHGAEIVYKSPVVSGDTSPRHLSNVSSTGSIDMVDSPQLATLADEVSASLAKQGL

Consider one compound from US20250367209A1 (SOUTHERN RESEARCH INSTITUTE, priority 2022, published 2025).

“Also recorded” adds a separate entry of the source.

Tau-FynSH3 interaction, sequence (P10636 other isoform, or with tags, fused parts or gaps): as above

As to `O=C(CN1CCOc2ccccc21)Nc1nnc(-c2ccccn2)[nH]1` [compound no. 69], the “binding to FynSH3, ITC” value on FynSH3 was “did not bind FynSH3”. The “Tau-FynSH3 interaction, Tau-Flag PLA (in words)” value at Tau-FynSH3 interaction (15 μM, HEK-293 cells) was “inhibited”. The compound also had an inhibition at 15 µM at Tau-FynSH3 interaction (HEK293, HEK-293 cells) of 37%. In addition, the “Tau-tubulin interaction, PLA” value in assay [1] was “did not inhibit Tau-tubulin binding; also recorded: does not inhibit Tau-tubulin interaction”. Also, the “Tau-LckSH3 interaction, Tau-Flag PLA” value at Tau-LckSH3 interaction is “strongly inhibited; also recorded: inhibits Tau-LckSH3 interaction”.
